Reference: patent US7879838B2, “Heteroaryl substituted pyrazinyl-piperazine-piperidines with CXCR3 antagonist activity” (Schering Corporation, priority 2005, dated 2011)

Target: T1, Human CXCR3 (N-delta 4) (Homo sapiens, UniProt P49682)
T1 construct: CD8 leader (N); Flag tag; expressed in transfected cells; membranes prepared
T1 sequence (P49682 5-368 limits assumed): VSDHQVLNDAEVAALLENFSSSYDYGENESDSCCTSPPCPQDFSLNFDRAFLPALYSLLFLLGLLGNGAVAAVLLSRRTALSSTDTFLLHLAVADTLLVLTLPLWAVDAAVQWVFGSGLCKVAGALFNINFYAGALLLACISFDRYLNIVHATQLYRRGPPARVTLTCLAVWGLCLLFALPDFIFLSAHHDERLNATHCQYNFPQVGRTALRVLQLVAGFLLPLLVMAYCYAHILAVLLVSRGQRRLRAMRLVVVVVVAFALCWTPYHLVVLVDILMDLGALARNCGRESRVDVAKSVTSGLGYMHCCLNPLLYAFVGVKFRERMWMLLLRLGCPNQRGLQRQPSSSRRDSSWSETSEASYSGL
Assay: Human CXCR3 (N-delta 4) scintillation proximity assay (SPA), [125I] IP-10 binding to Ba/F3-hCXCR3 membranes
Details: IC50 rating; 25 pM [125I] IP-10, membranes of Ba/F3 cells expressing human CXCR3 (N-delta 4)
Description: The inventive compounds can readily be evaluated to determine activity at The CXCR3 receptors by known methods, such as, for example, Development of Human CXCR3 (N-delta 4) Binding Assay.
Cloning and Expression of Human CXCR3 (N-delta 4):
The DNA encoding human CXCR3 was cloned by PCR using human genomic DNA (Promega, Madison, Wis.) as a template. The PCR primers were designed based on the published sequence of human orphan receptor GPR9 (1) with incorporated restriction sites, a Kozak consensus sequence, CD8 leader and Flag tag. The PCR product was subcloned into the mammalian expression vector pME18Sneo, a derivative of the SR-alpha expression vector (designated as pME18Sneo-hCXCR3 (N-delta 4).
IL-3-dependent mouse pro-B cells Ba/F3 were transfected by electroporation in 0.4 ml Dulbecco's PBS containing 4×10^6 cells with 20 μg of pME18Sneo-hCXCR3 (N-delta 4) plasmid DNA. Cells were pulsed at 400 Volts, 100 OHMs, 960 μFd. The transfected cells were under selection with 1 mg/ml G418 (Life Technologies, Gaithersburg, Md.). G418-resistant Ba/F3 clones were screened for CXCR3 expression by specific binding of [^125I] IP-10 (NEN Life Science Products, Boston, Mass.).
Preparation of Ba/F3-hCXCR3 (N-delta 4) Membranes
Ba/F3 cells expressing human CXCR3 (N-delta 4) were pelleted and resuspended in the lysis buffer containing 10 mM HEPES, pH 7.5 and Complete® protease inhibitors (1 tablet per 100 ml) (Boehringer Mannheim, Indianapolis, Ind.) at a cell density of 20×10^6 cells per ml. After 5 minutes incubation on ice, cells were transferred to 4639 cell disruption bomb (Parr Instrument, Moline, Ill.) and applied with 1,500 psi of nitrogen for 30 minutes on ice. Large cellular debris was removed by centrifugation at 1,000×g. Cell membrane in the supernatant was sedimented at 100,000×g. The membrane was resuspended in the lysis buffer supplemented with 10% sucrose and stored at −80° C. Total protein concentration of the membrane was determined by BCA method from Pierce (Rockford, Ill.).
Human CXCR3 (N-delta 4) Scintillation Proximity Assay (SPA)
For each assay point, 2 μg of membrane was preincubated for 1 hr with 300 μg wheat germ agglutinin (WGA) coated SPA beads (Amersham, Arlington Heights, Ill.) in the binding buffer (50 mM HEPES, 1 mM CaCl2, 5 mM MgCl2, 125 mM NaCl, 0.002% NaN3, 1.0% BSA) at room temperature. The beads were spun down, washed once, resuspended in the binding buffer and transferred to a 96-well Isoplate (Wallac, Gaithersburg, Md.). 25 pM of [^125I] IP-10 with tested compounds in a series of titration were added to start the reaction. After 3 hr reaction at room temperature, the amount of [^125I] IP-10 bound to the SPA beads was determined with a Wallac 1450 Microbeta counter.
The Ki values for the various example compounds of the present invention are given in the afore-mentioned Table 1. From these values, it would be apparent to the skilled artisan that the compounds of the invention have excellent utility CXCR3 antagonists.

Structure (SMILES) | IC50 [nM]
CC[C@H]1CN(c2nc(N)c(C(N)=O)nc2Cl)CCN1C1CCN(Cc2ccc(Cl)nc2)CC1 [compound 49] | 25 to 100
CC[C@H]1CN(c2nc(N)c(C(=O)NC3CCS(=O)(=O)C3)nc2Cl)CCN1C1CCN(C(=O)c2ccc(Cl)nc2N)CC1 (stereo partly drawn) [compound 54] | 25 to 100
CC[C@H]1CN(c2nc(N)c(C(=O)NCc3ccco3)nc2Cl)CCN1C1CCN(C(=O)c2ccc(Cl)nc2N)CC1 [compound 57] | 25 to 100
CC[C@H]1CN(c2nc(NCc3ccc(F)c(F)c3)c(C(=O)OC)nc2Cl)CCN1C1CCN(C(=O)c2ccc(Cl)nc2N)CC1 [compound 60] | 25 to 100
CC[C@H]1CN(c2nc(N)c(C(=O)NCCN(C)C)nc2Cl)CCN1C1CCN(C(=O)c2ccc(Cl)nc2N)CC1 [compound 64] | 25 to 100
CC[C@H]1CN(c2nc(N)c(C(=O)NN)nc2Cl)CCN1C1CCN(C(=O)c2ccc(Cl)nc2N)CC1 [compound 65] | 25 to 100
CC[C@H]1CN(c2nc(N)c(C(=O)NCCO)nc2Cl)CCN1C1CCN(Cc2ccc(Cl)nc2N2CCOCC2)CC1 [compound 66] | 25 to 100
CC[C@H]1CN(c2nc(N)c(C(=O)NCCO)nc2Cl)CCN1C1CCN(C(=O)c2ccc(C(F)(F)F)nc2Cl)CC1 [compound 68] | 25 to 100
CC[C@H]1CN(c2nc(N)c(C(=O)NN)nc2Cl)CCN1C1CCN(C(=O)c2ccc(-n3cccc3)nc2)CC1 [compound 69] | 25 to 100
CC[C@H]1CN(c2nc(N)c(C(=O)NCCO)nc2Cl)CCN1C1CCN(Cc2ccc(C#N)nc2)CC1 [compound 72] | > 100
CC[C@H]1CN(c2nc(N)c(C(=O)NC3CC3)nc2Cl)CCN1C1CCN(Cc2cc(C)nn2C)CC1 [compound 74] | > 100
CC[C@H]1CN(c2nc(N)c(C(N)=O)nc2Cl)CCN1C1CCN(Cc2ccc(Cl)n3ccnc23)CC1 [compound 75] | > 100
CCOC(=O)C1(NC(=O)c2nc(Cl)c(N3CCN(C4CCN(C(=O)c5ccc(Cl)nc5N)CC4)[C@@H](CC)C3)nc2N)CC1 [compound 76] | > 100
CC[C@H]1CN(c2nc(N)c(C(=O)NCCO)nc2Cl)CCN1C1CCN(C(=O)c2cnc(Cl)nc2C(F)(F)F)CC1 [compound 79] | > 100
CCOC(=O)NCc1nc(Cl)c(N2CCN(C3CCN(C(=O)c4ccc(Cl)nc4N)CC3)[C@@H](CC)C2)nc1N [compound 80] | > 100
CC[C@H]1CN(c2nc(N)c(C(=O)NCC(C)(C)O)nc2Cl)CCN1C1CCN(C(=O)c2ccc(Cl)nc2N)CC1 [compound 82] | > 100
CC[C@H]1CN(c2nc(N)c(C(=O)NNC(=O)C3CC3)nc2Cl)CCN1C1CCN(C(=O)c2ccc(Cl)nc2N)CC1 [compound 86] | > 100
CC[C@H]1CN(c2nc(N)c(C(=O)NCCO)nc2Cl)CCN1C1CCN(C(=O)c2ccc(Cl)nc2NC)CC1 [compound 91] | > 100
CC[C@H]1CN(c2nc(N)c(C(=O)NC(=N)N3CCCC3)nc2Cl)CCN1C1CCN(C(=O)c2ccc(Cl)nc2N)CC1 [compound 95] | > 100
CC[C@H]1CN(c2nc(N)c(C(N)=O)nc2Cl)CCN1C1CCN(C(=O)c2cc(F)c(N)nc2Cl)CC1 [compound 96] | > 100
CC[C@H]1CN(c2nc(N)c(C(=O)NCCO)nc2Cl)CCN1C1CCN(Cc2ccc(NC3CC3)nc2Cl)CC1 [compound 97] | > 100
CC[C@H]1CN(c2nc(N)c(C(=O)NCCCN(C)C)nc2Cl)CCN1C1CCN(C(=O)c2ccc(Cl)nc2N)CC1 [compound 98] | > 100

Continued, values first:

IC50 [nM] | Structure (SMILES)
25 to 100 | CC[C@H]1CN(c2nc(N)c(C(=O)NCCNS(C)(=O)=O)nc2Cl)CCN1C1CCN(C(=O)c2ccc(Cl)nc2N)CC1 [compound 50]
25 to 100 | CC[C@H]1CN(c2nc(N)c(C(=O)NC3CCOC3)nc2Cl)CCN1C1CCN(C(=O)c2ccc(Cl)nc2N)CC1 (stereo partly drawn) [compound 51]
25 to 100 | CC[C@H]1CN(c2nc(N)c(C(=O)NCCN3CCCC3)nc2Cl)CCN1C1CCN(C(=O)c2ccc(Cl)nc2N)CC1 [compound 52]
25 to 100 | CC[C@H]1CN(c2nc(N)c(C(=O)NCCS(C)(=O)=O)nc2Cl)CCN1C1CCN(Cc2ccc(Cl)nc2N)CC1 [compound 53]
25 to 100 | CC[C@H]1CN(c2nc(N)c(C(=O)NC3CCOC3=O)nc2Cl)CCN1C1CCN(C(=O)c2ccc(Cl)nc2N)CC1 (stereo partly drawn) [compound 55]
25 to 100 | CC[C@H]1CN(c2nc(N)c(C(N)=O)nc2Cl)CCN1C1CCN(C(=O)c2cc(F)c(Cl)nc2Cl)CC1 [compound 56]
25 to 100 | CC[C@H]1CN(c2nc(N)c(C(=O)NC3COCC3O)nc2Cl)CCN1C1CCN(C(=O)c2ccc(Cl)nc2N)CC1 (stereo partly drawn) [compound 61]
25 to 100 | CC[C@H]1CN(c2nc(N)c(C(=O)NCc3cccs3)nc2Cl)CCN1C1CCN(C(=O)c2ccc(Cl)nc2N)CC1 [compound 62]
25 to 100 | CC[C@H]1CN(c2nc(N)c(C(=O)NCCO)nc2Cl)CCN1C1CCN(C(=O)c2ccc(C(F)(F)F)nc2N)CC1 [compound 63]
25 to 100 | CC[C@H]1CN(c2nc(N)c(C(=O)NCCS(C)(=O)=O)nc2Cl)CCN1C1CCN(C(=O)c2ccc(Cl)nc2N)CC1 [compound 67]
25 to 100 | CC[C@H]1CN(c2nc(N)c(C(=O)NCCO)nc2Cl)CCN1C1CCN(Cc2ccc(C(F)(F)F)nc2)CC1 [compound 70]
25 to 100 | CC[C@H]1CN(c2nc(N)c(C(=O)NN)nc2Cl)CCN1C1CCN(C(=O)c2cnc(Cl)c(Cl)c2)CC1 [compound 71]
> 100 | CC[C@H]1CN(c2nc(N)c(C(=O)NN)nc2Cl)CCN1C1CCN(C(=O)c2cc(F)c(N)nc2Cl)CC1 [compound 73]
> 100 | CC[C@H]1CN(c2nc(NC(=O)N(C)C)c(C(=O)NC)nc2Cl)CCN1C1CCN(C(=O)c2ccc(Cl)nc2N)CC1 [compound 77]
> 100 | CC[C@H]1CN(c2nc(N)c(C(=O)NC3CC3)nc2Cl)CCN1C1CCN(C(=O)c2cc(F)c(N)nc2Cl)CC1 [compound 78]
> 100 | CC[C@H]1CN(c2nc(N)c(C(=O)NC3CC3)nc2Cl)CCN1C1CCN(Cc2c(C)nn(C)c2C)CC1 [compound 81]
> 100 | CC[C@H]1CN(c2nc(N)c(C(=O)Nc3nccc(=O)[nH]3)nc2Cl)CCN1C1CCN(C(=O)c2ccc(Cl)nc2N)CC1 [compound 83]
> 100 | CC[C@H]1CN(c2nc(NCC3CC3)c(C(N)=O)nc2Cl)CCN1C1CCN(C(=O)c2ccc(Cl)nc2N)CC1 [compound 84]
> 100 | CC[C@H]1CN(c2nc(N)c(C(=O)NCCO)nc2Cl)CCN1C1CCN(Cc2ccc(Cl)nn2)CC1 [compound 85]
> 100 | CC[C@H]1CN(c2nc(N)c(C(=O)N3CC(O)C3)nc2Cl)CCN1C1CCN(C(=O)c2ccc(Cl)nc2N)CC1 [compound 87]
> 100 | CC[C@H]1CN(c2nc(N)c(C(N)=O)nc2Cl)CCN1C1CCN(C(=O)c2ccc(-n3cccc3)nc2)CC1 [compound 88]
> 100 | CC[C@H]1CN(c2nc(N)c(C(=O)Nc3ncccc3O)nc2Cl)CCN1C1CCN(C(=O)c2ccc(Cl)nc2N)CC1 [compound 89]
> 100 | CC[C@H]1CN(c2nc(N)c(C(=O)N/C(N)=N/C#N)nc2Cl)CCN1C1CCN(C(=O)c2ccc(Cl)nc2N)CC1 [compound 90]
> 100 | CC[C@H]1CN(c2nc(N)c(C(=O)NCCO)nc2Cl)CCN1C1CCN(Cc2ccc(N3CCOCC3)nc2Cl)CC1 [compound 92]
> 100 | CC[C@H]1CN(c2nc(N)c(C(=O)NC3CCC(O)CC3)nc2Cl)CCN1C1CCN(C(=O)c2ccc(Cl)nc2N)CC1 (stereo partly drawn) [compound 93]
> 100 | CC[C@H]1CN(c2nc(N)c(C(=O)NCCO)nc2Cl)CCN1C1CCN(Cc2cc3ccccc3nc2Cl)CC1 [compound 94]
